Assay results: patent US11987586B1 (TAKEDA PHARMACEUTICAL COMPANY LIMITED, priority 2022, dated 2024)

Molecular target: T1, human OX2 receptor (Homo sapiens, UniProt O43614)
T1 construct: expressed in transfected cells
T1 sequence (O43614 1-444): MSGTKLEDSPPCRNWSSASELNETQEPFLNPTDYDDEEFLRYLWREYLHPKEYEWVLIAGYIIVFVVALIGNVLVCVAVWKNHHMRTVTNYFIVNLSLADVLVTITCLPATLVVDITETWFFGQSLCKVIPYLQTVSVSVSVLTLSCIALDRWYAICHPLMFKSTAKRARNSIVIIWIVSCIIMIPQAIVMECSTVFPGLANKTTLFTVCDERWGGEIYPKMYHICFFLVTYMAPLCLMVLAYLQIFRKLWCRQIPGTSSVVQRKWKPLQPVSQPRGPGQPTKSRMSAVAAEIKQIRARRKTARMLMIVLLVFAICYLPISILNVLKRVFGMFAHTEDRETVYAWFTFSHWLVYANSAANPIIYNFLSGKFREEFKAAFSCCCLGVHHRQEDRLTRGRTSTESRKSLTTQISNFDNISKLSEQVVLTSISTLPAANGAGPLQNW
Experiment: Measurement of orexin type 2 receptor agonist activity (calcium fluorescence, Fluo-4, FDSS)
Type: cell-based
Settings: 3 uM test compound; CHO cells expressing human OX2 receptor; DMSO = 0%, 10 nM orexin A (human) = 100%
Outline: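 Agonist activity (%) was normalised to the response to 10 nM final human orexin A (100%) and to the DMSO vehicle (0%). The response was measured as the Fluo-4 calcium signal, read kinetically over 1 min 40 s after compound addition to Fluo-4/probenecid-loaded stable CHO-K1 clones expressing human OX2 (aa 1-444).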

OX2R agonist activity (3 uM, %) [%] | SMILES
96 | CS(=O)(=O)N[C@@H]1CN2C(=O)N(c3noc4cc(F)c(F)c(-c5c(F)cccc5F)c34)CC[C@@H]2C1(F)F [Example 252, N-{(4aR,6R)-2-[4-(2,6-difluorophenyl)-5,6-difluoro-1,2-benzoxazol-3-yl]-5,5-difluoro-1-oxooctahydropyrrolo[1,2-c]pyrimidin-6-yl}methanesulfonamide]
101 | CS(=O)(=O)N[C@H]1C[C@H]2CCN(c3noc4cc(F)cc(-c5c(F)cccc5F)c34)C(=O)N2C1 [Example 253, N-{(4aR,6S)-2-[4-(2,6-difluorophenyl)-6-fluoro-1,2-benzoxazol-3-yl]-1-oxooctahydropyrrolo[1,2-c]pyrimidin-6-yl}methanesulfonamide]
95 | CCS(=O)(=O)N[C@@H]1CN2C(=O)N(c3noc4cc(F)cc(-c5ncc(F)cc5F)c34)CC[C@@H]2C1(F)F [Example 254, N-{(4aR,6R)-2-[4-(3,5-difluoropyridin-2-yl)-6-fluoro-1,2-benzoxazol-3-yl]-5,5-difluoro-1-oxooctahydropyrrolo[1,2-c]pyrimidin-6-yl}ethanesulfonamide]
107 | CCS(=O)(=O)N[C@@H]1CN2C(=O)N(c3noc4cc(OC(F)F)cc(-c5c(F)cccc5F)c34)CC[C@@H]2C1(F)F [Example 255, N-{(4aR,6R)-2-[6-(difluoromethoxy)-4-(2,6-difluorophenyl)-1,2-benzoxazol-3-yl]-5,5-difluoro-1-oxooctahydropyrrolo[1,2-c]pyrimidin-6-yl}ethanesulfonamide]
103 | O=C1N(c2noc3cc(OC(F)F)cc(-c4c(F)cccc4F)c23)CC[C@H]2N1C[C@@H](NS(=O)(=O)C1CC1)C2(F)F [Example 256, N-{(4aR,6R)-2-[6-(difluoromethoxy)-4-(2,6-difluorophenyl)-1,2-benzoxazol-3-yl]-5,5-difluoro-1-oxooctahydropyrrolo[1,2-c]pyrimidin-6-yl}cyclopropanesulfonamide]
110 | CNS(=O)(=O)N[C@@H]1Cn2c(cn(-c3noc4cc(C)nc(-c5c(F)cc(F)cc5F)c34)c2=O)C1(F)F [Example 257, N-{(6R)-7,7-difluoro-2-[6-methyl-4-(2,4,6-trifluorophenyl)[1,2]oxazolo[4,5-c]pyridin-3-yl]-3-oxo-2,5,6,7-tetrahydro-3H-pyrrolo[1,2-c]imidazol-6-yl}-N′-methylsulfuric diamide]
100 | Cc1cc(-c2c(F)cc(F)cc2F)c2c(N3CC[C@H]4N(C[C@@H](NS(C)(=O)=O)C4(F)F)C3=O)noc2n1 [Example 258, N-{(4aR,6R)-5,5-difluoro-2-[6-methyl-4-(2,4,6-trifluorophenyl)[1,2]oxazolo[5,4-b]pyridin-3-yl]-1-oxooctahydropyrrolo[1,2-c]pyrimidin-6-yl}methanesulfonamide]
96 | CS(=O)(=O)N[C@@H]1CN2C(=O)N(c3noc4cc(Cl)cc(-c5c(F)cccc5F)c34)CC[C@@H]2C1(F)F [Example 259, N-{(4aR,6R)-2-[6-chloro-4-(2,6-difluorophenyl)-1,2-benzoxazol-3-yl]-5,5-difluoro-1-oxooctahydropyrrolo[1,2-c]pyrimidin-6-yl}methanesulfonamide]
108 | CCS(=O)(=O)N[C@@H]1CN2C(=O)N(c3noc4cccc(-c5c(F)cc(F)cc5F)c34)CC[C@@H]2C1(F)F [Example 260, N-{(4aR,6R)-5,5-difluoro-1-oxo-2-[4-(2,4,6-trifluorophenyl)-1,2-benzoxazol-3-yl]octahydropyrrolo[1,2-c]pyrimidin-6-yl}ethanesulfonamide]
105 | CCS(=O)(=O)N[C@@H]1CN2C(=O)N(c3noc4cc(F)cc(-c5c(F)cc(F)cc5F)c34)CC[C@@H]2C1(F)F [Example 261]
114 | CCS(=O)(=O)N[C@@H]1CN2C(=O)N(c3noc4cccc(-c5c(F)cccc5F)c34)CC[C@@H]2C1(F)F [Example 262]
114 | CCS(=O)(=O)N[C@@H]1CN2C(=O)N(c3noc4cc(F)cc(-c5c(F)cccc5F)c34)CC[C@@H]2C1(F)F [Example 263, N-{(4aR,6R)-2-[4-(2,6-difluorophenyl)-6-fluoro-1,2-benzoxazol-3-yl]-5,5-difluoro-1-oxooctahydropyrrolo[1,2-c]pyrimidin-6-yl}ethanesulfonamide]
107 | CN(C)S(=O)(=O)N[C@@H]1Cn2c(cn(-c3noc4ccc(F)c(-c5c(F)cc(F)cc5F)c34)c2=O)C1(F)F [Example 264, N′-{(6R)-7,7-difluoro-2-[5-fluoro-4-(2,4,6-trifluorophenyl)-1,2-benzoxazol-3-yl]-3-oxo-2,5,6,7-tetrahydro-3H-pyrrolo[1,2-c]imidazol-6-yl}-N,N-dimethylsulfuric diamide]
103 | O=C1N(c2noc3cc(F)cc(-c4c(F)cc(F)cc4F)c23)C[C@H]2N1C[C@@H](NS(=O)(=O)CF)C2(F)F [Example 266]
101 | O=c1n(-c2noc3cc(C(F)F)cc(-c4c(F)cc(F)cc4F)c23)cc2n1C[C@@H](NS(=O)(=O)CF)C2(F)F [Example 267, N-{(6R)-2-[6-(difluoromethyl)-4-(2,4,6-trifluorophenyl)-1,2-benzoxazol-3-yl]-7,7-difluoro-3-oxo-2,5,6,7-tetrahydro-3H-pyrrolo[1,2-c]imidazol-6-yl}-1-fluoromethanesulfonamide]
104 | Cc1cc2onc(N3CC[C@H]4N(C[C@@H](NS(=O)(=O)C5CC5)C4(F)F)C3=O)c2c(-c2c(F)cccc2F)n1 [Example 268, N-{(4aR,6R)-2-[4-(2,6-difluorophenyl)-6-methyl[1,2]oxazolo[4,5-c]pyridin-3-yl]-5,5-difluoro-1-oxooctahydropyrrolo[1,2-c]pyrimidin-6-yl}cyclopropanesulfonamide]
104 | CCS(=O)(=O)N[C@@H]1CN2C(=O)N(c3noc4ccc(F)c(-c5c(F)cccc5F)c34)CC[C@@H]2C1(F)F [Example 269, N-{(4aR,6R)-2-[4-(2,6-difluorophenyl)-5-fluoro-1,2-benzoxazol-3-yl]-5,5-difluoro-1-oxooctahydropyrrolo[1,2-c]pyrimidin-6-yl}ethanesulfonamide]
109 | O=C1N(c2noc3ccc(F)c(-c4c(F)cccc4F)c23)CC[C@H]2N1C[C@@H](NS(=O)(=O)CF)C2(F)F [Example 270, N-{(4aR,6R)-2-[4-(2,6-difluorophenyl)-5-fluoro-1,2-benzoxazol-3-yl]-5,5-difluoro-1-oxooctahydropyrrolo[1,2-c]pyrimidin-6-yl}-1-fluoromethanesulfonamide]
107 | O=C1N(c2noc3cc(F)cc(-c4c(F)cccc4F)c23)CC[C@H]2N1C[C@@H](NS(=O)(=O)C1CC1)C2(F)F [Example 271, N-{(4aR,6R)-2-[4-(2,6-difluorophenyl)-6-fluoro-1,2-benzoxazol-3-yl]-5,5-difluoro-1-oxooctahydropyrrolo[1,2-c]pyrimidin-6-yl}cyclopropanesulfonamide]
109 | O=c1n(-c2noc3ccc(F)c(-c4c(F)cc(F)cc4F)c23)cc2n1C[C@@H](NS(=O)(=O)C1CC1)C2(F)F [Example 272, N-{(6R)-7,7-difluoro-2-[5-fluoro-4-(2,4,6-trifluorophenyl)-1,2-benzoxazol-3-yl]-3-oxo-2,5,6,7-tetrahydro-3H-pyrrolo[1,2-c]imidazol-6-yl}cyclopropanesulfonamide]
103 | CS(=O)(=O)N[C@@H]1CN2C(=O)N(c3noc4cccc(-c5ccccc5F)c34)CC[C@@H]2C1(F)F [Example 273, N-{(4aR,6R)-5,5-difluoro-2-[4-(2-fluorophenyl)-1,2-benzoxazol-3-yl]-1-oxooctahydropyrrolo[1,2-c]pyrimidin-6-yl}methanesulfonamide]
102 | CS(=O)(=O)N[C@@H]1CN2C(=O)N(c3noc4cc(C(F)F)cc(-c5c(F)cc(F)cc5F)c34)C[C@@H]2C1(F)F [Example 274, N-{(6R,7aR)-2-[6-(difluoromethyl)-4-(2,4,6-trifluorophenyl)-1,2-benzoxazol-3-yl]-7,7-difluoro-3-oxohexahydro-1H-pyrrolo[1,2-c]imidazol-6-yl}methanesulfonamide]
103 | CCS(=O)(=O)N[C@@H]1CN2C(=O)N(c3noc4cc(C)nc(-c5c(F)cccc5F)c34)CC[C@@H]2C1(F)F [Example 275, N-{(4aR,6R)-2-[4-(2,6-difluorophenyl)-6-methyl[1,2]oxazolo[4,5-c]pyridin-3-yl]-5,5-difluoro-1-oxooctahydropyrrolo[1,2-c]pyrimidin-6-yl}ethanesulfonamide]
100 | CS(=O)(=O)N[C@@H]1CN2C(=O)N(c3noc4cccc(-c5cccc(F)c5F)c34)CC[C@@H]2C1(F)F [Example 276, N-{(4aR,6R)-2-[4-(2,3-difluorophenyl)-1,2-benzoxazol-3-yl]-5,5-difluoro-1-oxooctahydropyrrolo[1,2-c]pyrimidin-6-yl}methanesulfonamide]
106 | CS(=O)(=O)N[C@@H]1CN2C(=O)N(c3noc4cccc(-c5ccc(F)cc5)c34)CC[C@@H]2C1(F)F [Example 277, N-{(4aR,6R)-5,5-difluoro-2-[4-(4-fluorophenyl)-1,2-benzoxazol-3-yl]-1-oxooctahydropyrrolo[1,2-c]pyrimidin-6-yl}methanesulfonamide]
